Measured values published in patent US9388126B2, “Sigma receptor ligands and methods of modulating cellular protein homeostasis using same” (Drexel University, priority 2012, dated 2016).

Tests used:
[1] = test system: MDA-MB-468 (GFP-LC3) cells; assay: GFP-LC3 punctae (autophagosome formation) microscopy assay; assay type: cell-based, human; settings: for GFP-LC3 punctae per cell: drug concentrations up to 100 μM; for EC50: Homo sapiens, MDA-MB-468, 24 hours of treatment, read-out: potency (EC50±S.E.M.) of autophagosome formation (GFP-LC3 punctae); for concentration at which precipitous cell death occurred: following 24 hours of treatment
Experimental: The human GFP-LC3 expression plasmid, pEGFP-LC3 (a gift from Drs. Grazia Ambrosini and Gary K. Schwartz, MSKCC), was stably transfected into MDA-MB-468 and selected with 0.5 mg/ml G418 sulfate. Stable populations were generated and compared to parental MDA-MB-468 for Sigma1 expression and autophagic and growth inhibitory response to Sigma ligands. GFP-LC3 translocation (punctae formation) was assessed by microscopy in MDA-MB-468 (GFP-LC3) stable cell populations. For microscopy-based experiments, cells were seeded onto Lab-Tek II glass chamber slides (Nalge Nunc International). […] Images of GFP-LC3 punctae were acquired with a Zeiss Axioplan 2 Imaging widefield microscope using Axiovision LE software. Punctae were counted using the spot quantitation program in the Fluoro-Chem software package (Alpha Innotech) and confirmed in parallel by manual counting. Autophagosome formation in MDAMB-468 (GFP-LC3) cells was quantitated as the mean number of GFP-LC3 punctae per GFP positive cell.
Initially, an established immunoblot-based assay to detect microtubule associated protein light chain 3 (LC3) lipidation was used to test for the activation of autophagy. […] Since transient transfections can produce spurious GFP-LC3 aggregates, stable GFP-LC3 transfected populations of MDA-MB-468 (GFP-LC3) were generated. […]

[2] = test system: T-47D breast adenocarcinoma cells; assay: Cell size by flow cytometry (mean FSC-H, G1 phase); assay type: cell-based, human; settings: 10 μM, 24 hours; control 412±5
Experimental: FIG. 31A is a differential interference contrast (DIC) image of MDA-MB-468 breast adenocarcinoma cells treated for ˜20 hours with DMSO (drug vehicle control), 10 μM IPAG (antagonist) or 10 μM PRE084 (agonist). A twenty-micron bar is shown in each image. Data are presented as mean±SEM. FIG. 31B is a graph illustrating the finding that IPAG diminished the mean cell size (FSC-H) of MDA-MB-468 breast tumor cells in a time-responsive manner. The mean FSC-H of 370±5 at to decreased to 323±4 after 24 hours of IPAG treatment and to 267±2 after 48 hours of treatment. Two-tailed t-tests were performed to determine statistical significance. For IPAG treatment compared to control (DMSO) and Sigma agonists (SKF and PRE084), P=0.0002 at d1 and P=0.00013 at d2. Data were generated from three to five independent determinations for each time-point. Flow cytometry was used to measure mean cell size (mean FSC-H) of T-47D breast adenocarcinoma cells. FIG. 31C is a bar graph illustrating T-47D cells treated for 24 hours with 10 μM indicated Sigma ligand. IPAG and BD 1047 (Sigma1 antagonists) diminished cell size from a mean FSC-H of 412±5 for control (DMSO) cells versus 341±7 and 381±8 for IPAG and BD1047 treated cells, respectively. […] Data represent 5 independent determinations (*P<0.05, ***P<0.001). FIG. 31D is a bar graph illustrating how IPAG (antagonist) decreases cell size in a dose responsive manner. T-47D were treated for 24 h with 1 and 10 μM IPAG, and mean FSC-H was measured. FIG. 31E is a graph illustrating that T47D cell size decreases over time. T-47D cells were treated for a total of 48 hours with 10 μM of the indicated Sigma ligands. […] Neither Sigma1 agonist, (+)-SKF10047 and PRE084, altered cell size. […] Two-tailed t-tests were performed to determine statistical significance. For IPAG treatment compared to control (DMSO) and Sigma1 agonists (SKF and PRE084), P=0.0002 at d1 and P<0.0001 at d2. For FIGS. 31B-31E, the mean FSC-H was determined for each cell cycle population (i.e., G1, S, G2/M), and data is shown for G1 phase cells. S and G2/M phase cells responded similarly (data not shown).

[3] = test system: MDA-MB-468 breast tumor cells; assay: Akt, S6K and ERK phosphorylation immunoblots; assay type: cell-based, human; settings: 10 μM, 24 hours
Experimental: FIG. 40, comprising FIGS. 40A-40C, illustrates Sigma1 antagonist modulation of Akt, S6K, and ERK phosphorylation. MDA-MB-468 breast tumor cells were treated for 24 hours with 10 μM IPAG (Sigma1 antagonist) or (+)SKF-10047 (SKF, Sigma1 agonist). Treated cells were harvested and cellular proteins were extracted with a buffer containing 1% Sodium Dodecyl Sulfate (SDS) and deoxycholate (DOC), supplemented with phosphatase and protease inhibitors. FIG. 40A is an image of an immunoblot illustrating Akt phosphorylation. […] Akt phosphorylation at threonine 308 was not altered in any of the samples (not shown). Equivalent loading was confirmed with an anti-GAPDH antibody. FIG. 40B is an image of an immunoblot illustrating phosphorylation. Phosphorylation of mTOR substrate, p70S6K at threonine 389 decreased 3-fold in IPAG, but not SKF treated cells. Total p70S6K was immunoblotted as a loading control. FIG. 40C is an immunoblot illustrating that p44/42 ERK1/2phosphorylation at threonine 202 and tyrosine 204 was abrogated by 24 hour treatment with IPAG. Data shown is representative of two independent experiments.

[4] = test system: MCF-7, T47D and MDA-MB-468 cells; assay: Cell proliferation by Alamar blue reduction, breast adenocarcinoma cultures; assay type: cell-based, human; design: anti-proliferative effect: dose or concentration left out as unconfirmed; settings: for anti-proliferative effect: 4 days; for inhibition of cell proliferation: after 4 days of treatment, six drug concentrations
From the text: In vitro cell proliferation was quantitated by Alamar blue reduction. The anti-proliferative effects of six drug concentrations of the indicated drugs were quantitated after 4 days of treatment.

[5] = test system: T47D and MDA-MB-468 cells; assay: Cell cycle profile (G1, S, G2 phase cells); assay type: cell-based, human; settings: 24 hours; IPAG 1 μM (T47D) or 10 μM (MDA-MB-468); (+)-SKF-10047 10 μM
Experimental: FIG. 30, comprising FIGS. 30A-30B, illustrates that Sigma1 antagonists mediate cell cycle arrest. […] FIG. 30A is a graph illustrating the percentage of G1, S, and G2 phase cells in T47D cells treated for 24 hours with DMSO (vehicle control), 1 μM IPAG (Sigma1 antagonist), or 10 μM (+)SKF-10047 (Sigma1 agonist). FIG. 30 B is a graph illustrating the percentage of G1, S, and G2 phase cells in MDA-MB-468 cells treated for 24 hours with DMSO (vehicle control), 10 μM IPAG (Sigma1 antagonist), or 10 μM (+)-SKF-10047 (Sigma1 agonist).

MDA-MB-468 cells = assay: Cell death by trypan blue exclusion; assay type: cell-based, human; settings: 3-MA alone (5 mM), 24 hours
Experimental: Trypan blue exclusion and propidium iodide staining were used to quantify general cell death and the presence of apoptotic cell death was confirmed by immunoblot. The percentage of dead cells in a given population was determined by quantifying the number of trypan blue positive (dead) cells and dividing by the total number of trypan blue positive and negative cells.

[6] = test system: MDA-MB-468 breast adenocarcinoma cells; assay: LC3 lipidation (LC3II) immunoblot; assay type: cell-based, human; settings: 10 μM, 24 hours
Experimental: Cells were lysed and proteins extracted in a modified RIPA buffer (25 mM Tris-HCl pH 7.6, 150 mM NaCl, 1% NP-40, 1% sodium deoxycholate and 0.1% SDS) supplemented with 10% glycerol (volume/volume), complete protease inhibitor cocktail (Roche), and Halt phosphatase inhibitor cocktail (Pierce). Approximately 10-20 μg of detergent soluble protein were resolved on NOVEX 10-20% polyacrylamide Tris-glycine gels (InVitrogen). Immunoblots were performed in a 20 mM Tris-buffered 137 mM saline solution (pH 7.6) containing 0.1% Tween-20 (polyoxyethylene (20) sorbitan monolaurate) and 5% (weight/volume) blotting grade non-fat dry milk (BioRad). The Lumigen PS-3 enhanced chemiluminescence kit (GE Healthcare) was used to reveal immunoblotted proteins.
Initially, an established immunoblot-based assay to detect microtubule associated protein light chain 3 (LC3) lipidation was used to test for the activation of autophagy. […] Since transient transfections can produce spurious GFP-LC3 aggregates, stable GFP-LC3 transfected populations of MDA-MB-468 (GFP-LC3) were generated. These cells were treated for 24 hours with increasing concentrations of Sigma receptor antagonists and agonists, and were compared to basal and DMSO treated controls (FIGS. 4B & 4C).

MCF7 tumor xenograft = assay: MCF7 tumor xenograft, tamoxifen potentiation by rimcazole; assay type: in vivo, athymic mice; settings: for inhibition of tumor growth: after 11 days of daily i.p. treatment, tamoxifen 1 mg/kg, Rimcazole 10 mg/kg, each alone
Experimental: Preliminary tumor xenograft experiments were performed according to MSKCC Tumor Assessment Core facility protocol. Briefly, β-estradiol treated athymic mice were injected with MCF7 cells, and drug treatment was initiated when mean tumor volume reached approximately 140 mm^3, which occurred 17 days following MCF-7 injection. Daily i.p. drug injections were performed for up to 11 days, and tumor volume was quantified by the formula: tumor volume=L×W^2×π/6. In this pilot experiment, 3-5 mice were tested per group. […] An extended time course, with more mice per group and multiple drug doses, may be performed to determine whether the tumor growth inhibitory effect of combined drug treatment is additive or synergistic.

SMILES: C=CCN1CC[C@]2(C)c3cc(O)ccc3C[C@H]1[C@H]2C (relative stereo) [(+)-SKF10047, [2S-(2α,6α,11R*]-1,2,3,4,5,6-hexahydro-6,11-dimethyl-3-(2-propenyl)-2,6-methano-3-benzazocin-8-ol]
- GFP-LC3 punctae per cell ([1]; 24 hours): ≤ 5±1 punctae per cell
- mean FSC-H (relative cell size) [2]: did not alter cell size
- decrease of Akt phosphorylation at serine 473 [3]: did not alter Akt phosphorylation
- anti-proliferative effect [4]: ineffective
- cell cycle profile [5]: did not present significant difference in cell cycle profile

SMILES: CC(C)=CCN1CC[C@]2(C)c3cc(O)ccc3C[C@H]1[C@H]2C (relative stereo) [(+)-pentazocine, (+)-[2S-(2,6,11R*)]-1,2,3,4,5,6-hexahydro-6,1-dimethyl-3-(3-methyl-2-butenyl)-2,6-methano-3-benzazocin-8-ol]
- GFP-LC3 punctae per cell ([1]; 24 hours): ≤ 6±1 punctae per cell
- anti-proliferative effect [4]: ineffective

SMILES: CN(C)CCN(C)CCc1ccc(Cl)c(Cl)c1 [BD1047, N′-[2-(3,4-dichlorophenyl)ethyl]-N,N,N′-trimethylethane-1,2-diamine]
- mean FSC-H (relative cell size) [2]: 381±8
- inhibition of cell proliferation [4]: also inhibited cell proliferation

SMILES: CN1CCN(CCc2ccc(Cl)c(Cl)c2)CC1 [BD1063, 1-[2-(3,4-dichlorophenyl)ethyl]-4-methylpiperazine]
- inhibition of cell proliferation [4]: also inhibited cell proliferation

SMILES: Cn1cnc(N)c2ncnc1-2 [Compound 3-MA, 3-methyladenine]
- punctae per cell ([1]; 5 mM 3-MA alone, 24 hours): 5±1 punctae per cell
- dead cells per well (MDA-MB-468 cells): 6±2%

SMILES: COc1cccc2c1CCCC2CCCN1CCN(C2CCCCC2)CC1 (centres unmarked) [PB28, 1-cyclohexyl-4-[3-(5-methoxy-1,2,3,4-tetra-hydronaphthalen-1-yl)propyl]piperazine]
- EC50 [1]: 52 ± 9 µM
- concentration at which precipitous cell death occurred [1]: 100 µM
- conversion of LC3 to LC3II (autophagosome formation) [6]: converted LC3 to LC3II

SMILES: C[C@@H]1CN(CCCn2c3ccccc3c3ccccc32)C[C@H](C)N1 [rimcazole, 9-{3-[(3R,5S)-3,5-dimethylpiperazin-1-yl]propyl}-9H-carbazole]
- EC50 [1]: 50 ± 8 µM
- concentration at which precipitous cell death occurred [1]: 100 µM
- conversion of LC3 to LC3II (autophagosome formation) [6]: converted LC3 to LC3II
- inhibition of tumor growth (MCF7 tumor xenograft): approximately 50%
- tumor growth (MCF7 tumor xenograft; tamoxifen (1 mg/kg) and Rimcazole (10 mg/kg) combined, 11 day time course): completely inhibited
- inhibition of cell proliferation [4]: inhibited cell proliferation with comparable potencies in all cell lines

SMILES: CC/C(=C(\c1ccccc1)c1ccc(OCCN(C)C)cc1)c1ccccc1 [tamoxifen, (Z)-2-[4-(1,2-diphenylbut-1-enyl)phenoxy]-N,N-dimethylethanamine]
- inhibition of tumor growth (MCF7 tumor xenograft): approximately 50%
- inhibition of cell proliferation [4]: inhibited cell proliferation with similar potencies
